The structures appear in SMILES notation.

The target in the assay is human metabotropic Glutamate 4 receptor (mGluR4) (Homo sapiens (Human), UniProt Q14833). The assay can be described thus: Assay A: in vitro testing of mGluR4 potency (glutamate-induced cAMP lowering, HTRF cAMP). It is filed as cell-based. The settings on record: HEK293 cells overexpressing human mGluR4; 10 uM L-glutamic acid, 1 uM forskolin; compounds of the present invention. The essentials: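 HEK293 cells overexpressing human mGluR4 treated 30 min at room temperature with compound plus 10 uM L-glutamate, 1 uM forskolin, 0.5 mM IBMX, 0.1% BSA, 1% DMSO. cAMP read by HTRF (665/615 nm ratio), normalized to glutamate (100%) and no-glutamate (0%) controls as percent of control.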
Chain of human metabotropic Glutamate 4 receptor (mGluR4) (Q14833 33-912): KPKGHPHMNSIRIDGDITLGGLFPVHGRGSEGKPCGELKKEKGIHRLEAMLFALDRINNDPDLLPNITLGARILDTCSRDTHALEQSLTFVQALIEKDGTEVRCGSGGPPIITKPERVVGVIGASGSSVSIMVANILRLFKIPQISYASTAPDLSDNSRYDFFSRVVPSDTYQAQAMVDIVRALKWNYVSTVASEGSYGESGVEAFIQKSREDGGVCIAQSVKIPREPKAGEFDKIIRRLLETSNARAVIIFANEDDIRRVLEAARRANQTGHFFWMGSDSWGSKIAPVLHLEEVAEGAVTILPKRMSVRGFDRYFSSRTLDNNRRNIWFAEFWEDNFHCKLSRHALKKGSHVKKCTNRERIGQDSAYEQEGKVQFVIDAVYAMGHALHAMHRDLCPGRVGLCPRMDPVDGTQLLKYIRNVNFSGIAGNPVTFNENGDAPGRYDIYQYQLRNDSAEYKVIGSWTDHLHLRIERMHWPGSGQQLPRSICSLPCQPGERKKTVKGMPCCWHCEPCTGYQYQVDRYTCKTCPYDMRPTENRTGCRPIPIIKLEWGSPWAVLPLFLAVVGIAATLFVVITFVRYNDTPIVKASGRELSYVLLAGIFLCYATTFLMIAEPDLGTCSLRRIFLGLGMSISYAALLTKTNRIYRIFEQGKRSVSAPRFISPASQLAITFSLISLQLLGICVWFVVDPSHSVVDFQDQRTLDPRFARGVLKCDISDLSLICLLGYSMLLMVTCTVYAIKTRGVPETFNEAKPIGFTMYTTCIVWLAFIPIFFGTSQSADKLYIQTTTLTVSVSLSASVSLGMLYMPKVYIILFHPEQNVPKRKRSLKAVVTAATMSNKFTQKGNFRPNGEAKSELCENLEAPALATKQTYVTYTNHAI
One may read the IC50 as the midpoint of a concentration-inhibition curve. Regarding `CCn1c([C@@H](NC(=O)c2cnc(C)cn2)C(C)(C)O)nc2cc(Cl)ccc21` [Example 81, N-[(1R)-1-(5-chloro-1-ethyl-1H-1,3-benzodiazol-2-yl)-2-hydroxy-2-methylpropyl]-5-methylpyrazine-2-carboxamide], the IC50 was 14 nM. Take `Cc1cnc(C(=O)N[C@H](c2nc3cc(Cl)ccc3n2CC(F)F)C2CC2)cn1` [Example 158, N-[(S)-[5-chloro-1-(2,2-difluoroethyl)-1H-1,3-benzodiazol-2-yl](cyclopropyl)methyl]-5-methylpyrazine-2-carboxamide]: the IC50 was found to be 3 nM.

For `Cc1cnc(C(=O)NC(c2nc3cc(C(F)(F)F)ccc3n2CC(F)F)C2CCOC2)cn1` (single isomer, unassigned) [Example 141, N-{[1-(2,2-difluoroethyl)-5-(trifluoromethyl)-1H-1,3-benzodiazol-2-yl](oxolan-3-yl)methyl}-5-methylpyrazine-2-carboxamide], the midpoint of inhibition, the IC50, lay at 31 nM. The figure for `CCn1c([C@@H](NC(=O)c2cnc(C)cn2)[C@H]2CCOC2)nc2cc(OC(F)(F)F)ccc21` (single isomer, unassigned) [Example 70] is 12 nM.

With `COCCn1c(C(NC(=O)c2cnc(C)cn2)C2CCOC2)nc2cc(OC(F)(F)F)ccc21` (single isomer, unassigned) [Example 62-2, N-{[1-(2-methoxyethyl)-5-(trifluoromethoxy)-1H-1,3-benzodiazol-2-yl](oxolan-3-yl)methyl}-5-methylpyrazine-2-carboxamide], half-maximal inhibition (IC50) required 28 nM. For `CCn1c([C@@H](NC(=O)c2cnc(C(F)F)cn2)C2CC2)nc2c(C)c(C#N)ccc21` [Example 33, N-[(S)-(5-cyano-1-ethyl-4-methyl-1H-1,3-benzodiazol-2-yl)(cyclopropyl)methyl]-5-(difluoromethyl)pyrazine-2-carboxamide], half-maximal inhibition (IC50) was put at 4 nM. The figure for `Cc1cnc(C(=O)N[C@H](c2nc3cc(C)c(F)cc3n2C)C2CC2)cn1` [Example 96, N-[(S)-cyclopropyl (6-fluoro-1,5-dimethyl-1H-1,3-benzodiazol-2-yl)methyl]-5-methylpyrazine-2-carboxamide] is 15 nM; for `COCCCn1c([C@@H](NC(=O)c2cnc(C)cn2)[C@@H](C)OC)nc2cc(OC(F)(F)F)ccc21` [Example 130, N-[(1R,2R)-2-methoxy-1-[1-(3-methoxypropyl)-5-(trifluoromethoxy)-1H-1,3-benzodiazol-2-yl]propyl]-5-methylpyrazine-2-carboxamide] it is 13 nM. For `Cc1cnc(C(=O)N[C@H](c2nc3cc(F)ccc3n2C)C2CC2)cn1` [Example 51, N-[(S)-cyclopropyl(5-fluoro-1-methyl-1H-1,3-benzodiazol-2-yl)methyl]-5-methylpyrazine-2-carboxamide], inhibition was half-maximal at 28 nM (IC50). `COCCn1c([C@@H](NC(=O)c2cnc(C(F)F)cn2)[C@H]2CCOC2)nc2cc(OC(F)(F)F)ccc21` [Example 77, 5-(difluoromethyl)-N-[(S)-[1-(2-methoxyethyl)-5-(trifluoromethoxy)-1H-1,3-benzodiazol-2-yl][(3R)-oxolan-3-yl]methyl]pyrazine-2-carboxamide] yielded an IC50 of 12 nM.

Compound `Cc1cnc(C(=O)N[C@H](c2nc3cc(C(F)(F)F)ccc3n2C)[C@H]2CCCOC2)cn1` [Example 82, 5-methyl-N-[(S)-[1-methyl-5-(trifluoromethyl)-1H-1,3-benzodiazol-2-yl][(3R)-oxan-3-yl]methyl]pyrazine-2-carboxamide] registered a half-inhibitory concentration (IC50) of 13 nM.

`CCn1c([C@@H](NC(=O)c2cnc(C)cn2)C2CC2)nc2cc(Cl)ccc21` [Example 25, N-[(S)-(5-chloro-1-ethyl-1H-1,3-benzodiazol-2-yl)(cyclopropyl)methyl]-5-methylpyrazine-2-carboxamide] came in with a 50% inhibitory concentration (IC50) of 3 nM. The compound `COCCn1c(C(NC(=O)c2cnc(C)cn2)C2CCCOC2)nc2cc(C(F)(F)F)ccc21` (single isomer, unassigned) [Example 103-1, N-{[1-(2-methoxyethyl)-5-(trifluoromethyl)-1H-1,3-benzodiazol-2-yl](oxan-3-yl)methyl}-5-methylpyrazine-2-carboxamide] registered an IC50 of 22 nM.

With `CCn1c(C(NC(=O)c2cnc(C)cn2)C2CCOC2)nc2ccc(C(F)(F)F)cc21` (single isomer, unassigned) [Example 148, N-{[1-ethyl-6-(trifluoromethyl)-1H-1,3-benzodiazol-2-yl](oxolan-3-yl)methyl}-5-methylpyrazine-2-carboxamide], half-maximal inhibition (IC50) required 14 nM. In the case of `Cc1cnc(C(=O)N[C@H](c2nc3ccc(C(F)(F)F)cc3n2CC(F)F)[C@@H]2CCOC2)cn1` [Example 145, N-[(S)-[1-(2,2-difluoroethyl)-6-(trifluoromethyl)-1H-1,3-benzodiazol-2-yl][(3S)-oxolan-3-yl]methyl]-5-methylpyrazine-2-carboxamide], half-maximal inhibition (IC50) required 41 nM.

For `Cn1c(C(NC(=O)c2cnc(C(F)F)cn2)C2CCCO2)nc2cc(OC(F)(F)F)ccc21` (stereo not shown) [Example 113-1, 5-(difluoromethyl)-N-{[1-methyl-5-(trifluoromethoxy)-1H-1,3-benzodiazol-2-yl](oxolan-2-yl)methyl}pyrazine-2-carboxamide], the IC50 is 45 nM. With `CCn1c([C@@H](NC(=O)c2cnc(C(F)F)cn2)C(C)(C)O)nc2cc(F)c(F)cc21` [Example 57, 5-(difluoromethyl)-N-[(1R)-1-(1-ethyl-5,6-difluoro-1H-1,3-benzodiazol-2-y1)-2-hydroxy-2-methylpropyl]pyrazine-2-carboxamide] the figure was 19 nM.

In turn, `COCCn1c([C@@H](NC(=O)c2cnc(C(F)F)cn2)[C@@H]2CCOC2)nc2cc(C(F)(F)F)ccc21` [Example 90, 5-(difluoromethyl)-N-[(S)-[1-(2-methoxyethyl)-5-(trifluoromethyl)-1H-1,3-benzodiazol-2-yl][(3S)-oxolan-3-yl]methyl]pyrazine-2-carboxamide] displayed a half-maximal inhibitory concentration (IC50) of 6 nM.

On to `Cc1cnc(C(=O)N[C@H](c2nc3cc(C(F)(F)F)ccc3n2C)[C@]2(O)CCCOC2)cn1` [Example 32, N-[(R)-[(3R)-3-hydroxyoxaN-3-yl][1-methyl-5-(trifluoromethyl)-1H-1,3-benzodiazol-2-yl]methyl]-5-methylpyrazine-2-carboxamide], for which the midpoint of inhibition, the IC50, lay at 16 nM.

As to `Cc1cnc(C(=O)N[C@H](c2nc3c(C)c(C#N)ccc3n2CC(F)F)C2CC2)cn1` [Example 44, N-[(S)-[5-cyano-1-(2,2-difluoroethyl)-4-methyl-1H-1,3-benzodiazol-2-yl](cyclopropyl)methyl]-5-methylpyrazine-2-carboxamide], the IC50 came to 5 nM. `CCn1c([C@@H](NC(=O)c2cnc(C)cn2)C2CC2)nc2cc(F)ccc21` [Example 1, N-[(S)-cyclopropyl(1-ethyl-5-fluoro-1H-1,3-benzodiazol-2-yl)methyl]-5-methylpyrazine-2-carboxamide] displayed a half-inhibitory concentration (IC50) of 4 nM. Compound `COCCn1c([C@@H](NC(=O)c2cnc(C)cn2)[C@@H]2CCOC2)nc2cc(Cl)ccc21` [Example 91, N-[(S)-[5-chloro-1-(2-methoxyethyl)-1H-1,3-benzodiazol-2-yl][(3S)-oxolan-3-yl]methyl]-5-methylpyrazine-2-carboxamide] came in with an IC50 of 11 nM. As for `Cc1cnc(C(=O)NC(c2nc3cc(C(F)(F)F)ccc3n2C)C2CCCOC2)cn1` (single isomer, unassigned) [Example 82-2, 5-methyl-N-{[1-methyl-5-(trifluoromethyl)-1H-1,3-benzodiazol-2-yl](oxan-3-yl)methyl}pyrazine-2-carboxamide], it took 32 nM to reach half-maximal inhibition (IC50).

Consider `COCCn1c(C(NC(=O)c2cnc(C)cn2)C2CCCO2)nc2cc(OC(F)(F)F)ccc21` (stereo not shown) [Example 89-2], for which 4 nM corresponded to half-maximal inhibition (IC50). Compound `CCn1c(C(NC(=O)c2cnc(C)cn2)C2CCOC2)nc2cc(F)c(F)cc21` (single isomer, unassigned) [Example 159, N-[(1-ethyl-5,6-difluoro-1H-1,3-benzodiazol-2-yl)(oxolan-3-yl)methyl]-5-methylpyrazine-2-carboxamide] registered a half-inhibitory concentration (IC50) of 30 nM. Turning to `CCn1c([C@@H](NC(=O)c2cnc(C)cn2)[C@]2(O)CCCOC2)nc2ccc(F)cc21` [Example 153, N-[(R)-(1-ethyl-6-fluoro-1H-1,3-benzodiazol-2-yl)[(3R)-3-hydroxyoxan-3-yl]methyl]-5-methylpyrazine-2-carboxamide], half-maximal inhibition (IC50) was put at 30 nM. `COCCn1c([C@@H](NC(=O)c2cnc(C(F)F)cn2)C2CC2)nc2cc(F)ccc21` [Example 5, N-[(S)-cyclopropyl[5-fluoro-1-(2-methoxyethyl)-1H-1,3-benzodiazol-2-yl]methyl]-5-(difluoromethyl)pyrazine-2-carboxamide] showed an IC50 of 5 nM. For the compound `Cc1cnc(C(=O)NC(c2nc3ccc(C(F)(F)F)cc3n2CC(F)F)C2CCOC2)cn1` (single isomer, unassigned) [Example 146, N-{[1-(2,2-difluoroethyl)-6-(trifluoromethyl)-1H-1,3-benzodiazol-2-yl](oxolan-3-yl)methyl}-5-methylpyrazine-2-carboxamid], the IC50 worked out at 16 nM. The figure for `CCn1c([C@@H](NC(=O)c2cnc(C)cn2)[C@]2(O)CCCOC2)nc2cc(C(F)(F)F)ccc21` [Example 149, N-[(R)-[1-ethyl-5-(trifluoromethyl)-1H-1,3-benzodiazol-2-yl][(3R)-3-hydroxyoxan-3-yl]methyl]-5-methylpyrazine-2-carboxamide] is 3 nM; for `Cc1cnc(C(=O)N[C@H](c2nc3cc(F)ccc3n2C(C)C)C2CC2)cn1` [Example 7, N-[(S)-cyclopropyl[5-fluoro-1-(propan-2-yl)-1H-1,3-benzodiazol-2-yl]methyl]-5-methylpyrazine-2-carboxamide] it is 4 nM; for `CCn1c([C@@H](NC(=O)c2cnc(C)cn2)[C@]2(O)CCOC2)nc2cc(Cl)ccc21` [Example 154, N-[(R)-(5-chloro-1-ethyl-1H-1,3-benzodiazol-2-yl)[(3R)-3-hydroxyoxolan-3-yl]methyl]-5-methylpyrazine-2-carboxamide] it is 84 nM.

The record behind these values is patent US20240182453A1, “NOVEL SUBSTITUTED PYRAZINE-CARBOXAMIDE DERIVATIVES” (Boehringer Ingelheim International GmbH, priority 2022, published 2024).
